The record followed here is patent US7605272B2, “IGF-1R inhibitor” (Kyowa Hakko Kirin Co., Ltd., priority 2005, dated 2009).

The subject of assay [1] is AsPC-1. The experiment in a line: Cytostatic activity on human pancreatic cancer cell line AsPC-1 (WST-1). The class given is cell-based. The settings on record: 10 μmol/L; for inhibition at 10 µM: Homo sapiens, ASPC1, 72 h, read-out: cytostatic rate (%) AsPC-1 (10 μmol/L). The procedure:
(§1) The cytostatic rates of the test compound on the human pancreatic cancer cell line AsPC-1 and the human colon cancer cell line Colo205 were determined in the following manner.
(§2) For culturing AsPC-1, RPMI 1640 medium containing 20% fetal bovine serum, 1 mmol/L sodium pyruvate, 10 mmol/L HEPES, 4.5 g/L glucose and penicillin/streptomycin (1:1). The Colo205 cell was cultured using RPMI 1640 medium containing 10% fetal bovine serum, 1 mmol/L sodium pyruvate, 10 mmol/L HEPES, 4.5 g/L glucose and penicillin/streptomycin (1:1) was used. Each 80 μL of the AsPC-1 cell having a concentration of 5×10^4 cells/mL (or the Colo205 having a concentration of 5×10^4 cells/mL) was inoculated to wells of a TC MICROWELL 96F plate (Nalge Nunc International, Catalog No. 167008) and was cultured in a 5% carbon dioxide gas incubator at 37° C. for 24 hours. Each 20 μL of a solution of the test compound in DMSO which was prepared to make the final concentration to 1 μmol/L or 10 μmol/L, was added to each well. Each 20 μL of DMSO was added to the control well and the blank well to a final concentration of 0.1%. After adding the test compound, the cell was incubated in a 5% carbon dioxide gas incubator at 37° C. for 72 hours except for the blank well. After adding 20 μL of WST-1 reagent which was diluted to 50% by RPMI medium to each well, the cells were further incubated at 37° C. for 2 hours. Then, the absorbances at 450 nm (reference wavelength: 690 nm) were determined with a microplate spectrophotometer SPECTRA max 340PC. The cytostatic rate (%) was then determined in the similar manner to the above multiple myeloma cell lines.

In assay [2] the target is T1, IGF-1R (Homo sapiens, UniProt P08069).
T1 construct: purchased Upstate Co. 14-465
Briefly: IGF-1R inhibitory activity (kinase reaction, time-resolved fluoroimmunoassay). It counts as biochemical. Particulars: test compound 10 μmol/L. In a few lines:
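Compounds were tested at a single 10 μmol/L concentration. Each was incubated with recombinant IGF-1R (200 μg/L), 10 mmol/L ATP, MgCl2/MnCl2 and Na3VO4 (pH 7.5) on immobilized poly(Glu-Tyr) peptide for 30 min at 24° C. Eu-anti-phosphotyrosine time-resolved fluorescence (340/615 nm) gave relative activity against no-compound and no-enzyme wells, reported as % inhibition.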

For assay [3], the system named is Colo205. The experiment in a line: Cytostatic activity on human colon cancer cell line Colo205 (WST-1). It counts as cell-based. Particulars: 10 μmol/L; for inhibition at 10 µM: Homo sapiens, COLO 205, 72 h, read-out: cytostatic rate (%) Colo205 (10 μmol/L). The protocol: as §1, §2
Assay [4] relates to NCI-H929. The experiment in a line: Cytostatic activity on human multiple myeloma cell line NCI-H929 (WST-1). The class given is cell-based. Particulars: for inhibition at 1 µM / inhibition at 10 µM: Homo sapiens, NCI-H929, 72 h; for inhibition at 1 µM: read-out: cytostatic rate (%) H929 (1 μmol/L); for inhibition at 10 µM: 10 μmol/L, read-out: cytostatic rate (%) H929 (10 μmol/L). In short, it runs like this: (§3)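 Cells pre-cultured 24 h at 37 °C, 5% CO2, then exposed 72 h to compound at final 1 or 10 μmol/L (0.1% DMSO). WST-1 added for 2 h, absorbance at 450 nm (ref 690 nm). Cytostatic rate = 100 minus relative growth, with DMSO control as 100% and blank as 0%.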

Assay [5] has as its system KMS-11. The experiment in a line: Cytostatic activity on human multiple myeloma cell line KMS-11 (WST-1). The settings on record: for inhibition at 1 µM / inhibition at 10 µM: Homo sapiens, KMS-11, 72 h; for inhibition at 1 µM: read-out: cytostatic rate (%) KMS-11 (1 μmol/L); for inhibition at 10 µM: 10 μmol/L, read-out: cytostatic rate (%) KMS-11 (10 μmol/L). It counts as cell-based. In a few lines: as §3

[6] abbreviates: IGF-1R active recombinant enzyme.
The mark [7] stands for this setting: NCI-H929 cells, test compound 1 μmol/L, WST-1.
The mark [8] stands for this setting: KMS-11 cells, test compound 1 μmol/L, WST-1.

Where two headings read alike, the source gives them in different places.

T1 sequence (P08069 959-1367 limits assumed): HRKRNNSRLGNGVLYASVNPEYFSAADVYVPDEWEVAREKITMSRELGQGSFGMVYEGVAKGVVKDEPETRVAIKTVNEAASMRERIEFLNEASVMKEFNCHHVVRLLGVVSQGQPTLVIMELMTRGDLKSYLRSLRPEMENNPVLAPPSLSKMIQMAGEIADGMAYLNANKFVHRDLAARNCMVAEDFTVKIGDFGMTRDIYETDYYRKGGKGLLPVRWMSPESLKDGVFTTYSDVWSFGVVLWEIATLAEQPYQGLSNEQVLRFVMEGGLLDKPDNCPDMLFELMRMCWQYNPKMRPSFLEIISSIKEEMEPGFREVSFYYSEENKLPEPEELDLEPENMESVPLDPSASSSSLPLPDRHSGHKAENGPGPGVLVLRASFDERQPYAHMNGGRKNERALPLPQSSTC

Regarding `Cc1ccsc1C(=O)Nc1cc(CN(CCO)CCN2CCOCC2)ccc1/C=C/c1n[nH]c2ccccc12` [Compound 253, (E)-N-{5-[N-(2-hydroxyethyl)-2-(morpholin-4-yl)ethylaminomethyl]-2-[2-(1H-indazol-3-yl)vinyl]phenyl}-3-methylthiophene-2-carboxamide], the inhibition at 10 µM in assay [1] turned out to be 100%; in assay [2] (setting [6]) it was 98.7%; in assay [3] it was 122%. For the same compound, the inhibition at 1 µM in assay [4] (1 μmol/L, 72 hours) stood at 119%; in assay [5] (1 μmol/L, 72 hours), 109%.

As to `Cn1cccc1C(=O)Nc1ccccc1/C=C/c1n[nH]c2ccccc12` [Compound 29, (E)-N-{2-[2-(1H-indazol-3-yl)vinyl]phenyl}-1-methyl-1H-pyrrole-2-carboxamide], the inhibition at 10 µM in assay [1] was found to be 66.1%; in assay [2] (setting [6]), 97.9%; in assay [3], 114%; in assay [4] (72 hours), 117%; in assay [5] (72 hours), 112%.

As for `Nc1cccc2c1C(=O)N(c1cc3c(cc1/C=C/c1n[nH]c4ccccc14)OCO3)C2=O` [Compound 152, (E)-4-amino-2-{6-[2-(1H-indazol-3-yl)vinyl]benzo[1,3]dioxol-5-yl}isoindole-1,3-dione], the inhibition at 10 µM in assay [1] turned out to be 72.1%; in assay [2] (setting [6]) it was 99.5%; in assay [3] it was 86.7%; in assay [4] (72 hours), 122%; in assay [5] (72 hours) it was 116%.

Consider `CCN(CC)CCOc1ccc(/C=C/c2n[nH]c3ccccc23)c(NC(=O)c2sccc2C)c1OC` [Compound 263, (E)-N-{3-(2-diethylaminoethoxy)-6-[2-(1H-indazol-3-yl)vinyl]-2-methoxymephenyl}-3-methylthiophene-2-carboxamide], for which, in assay [1] (72 hours), the “cytostatic rate (%) AsPC-1 (10 μmol/L)” value is reported as 103.4%. In addition, the “inhibitory activity (%) at 10 μmol/L” value in assay [2] (setting [6]) was 100.9%. Also, the “cytostatic rate (%) Colo205 (10 μmol/L)” value in assay [3] (72 hours) stood at 120.5%. Besides, the “cytostatic rate (%) H929 (1 μmol/L)” value in assay [4] (1 μmol/L, 72 hours) is given as 116.0%. In addition, in assay [5] (1 μmol/L, 72 hours), the “cytostatic rate (%) KMS-11 (1 μmol/L)” value came to 126.2%.

As for `Cc1ccsc1C(=O)Nc1ccccc1/C=C/c1n[nH]c2ccccc12` [Compound 41, (E)-N-{2-[2-(1H-indazol-3-yl)vinyl]phenyl}-3-methylthiophene-2-carboxamide], the inhibition at 10 µM stood at 85.5% in assay [1]; 98.6% in assay [2] (setting [6]); 115% in assay [3]; 121% in assay [4] (72 hours); 109% in assay [5] (72 hours).

On to `Cc1ccsc1C(=O)Nc1cc(C(=O)N2CCOCC2)ccc1/C=C/c1n[nH]c2ccccc12` [Compound 100, (E)-N-{2-[2-(1H-indazol-3-yl)vinyl]-5-(morpholin-4-ylcarbonyl)phenyl}-3-methylthiophene-2-carboxamide], for which the inhibition at 10 µM in assay [1] was 108%; in assay [2], 98.6%; in assay [3], 121%; in assay [4] (72 hours), 122%; in assay [5] (72 hours), 115%.

Regarding `CN[C@@H]1CN(CCCOc2ccc(/C=C/c3n[nH]c4ccccc34)c(NC(=O)c3sccc3C)c2OC)C[C@H]1OC` (relative stereo) [Compound 348, (E)-N-(6-[2-(1H-indazol-3-yl)vinyl]-2-methoxy-3-{3-[(3R*,4R*)-3-methoxy-4-(methylamino)pyrrolidin-1-yl]propoxy}phenyl)-3-methylthiophene-2-carboxamide], in assay [2] (setting [6]), the inhibition at 10 µM is 109%. The inhibition at 1 µM is 116% in assay [4] (1 μmol/L, 72 hours) and 117% in assay [5] (1 μmol/L, 72 hours).

Turning to `Cc1ccsc1C(=O)Nc1cc(C(=O)N2CCCC2)ccc1/C=C/c1n[nH]c2ccccc12` [Compound 116, (E)-N-{2-[2-(1H-indazol-3-yl)vinyl]-5-(pyrrolidin-1-ylcarbonyl)phenyl}-3-methylthiophene-2-carboxamide], the inhibition at 10 µM in assay [2] is 103%; in assay [4] (72 hours), 118%; in assay [5] (72 hours), 114%.

`O=S(=O)(Nc1ccccc1/C=C/c1n[nH]c2ccccc12)c1cccs1` [Compound 60, (E)-N-{2-[2-(1H-indazol-3-yl)vinyl]phenyl}thiophene-2-sulfonamide]: the inhibition at 10 µM in assay [2] (setting [6]) was found to be 77.4%; in assay [4] (72 hours) it was 63.9%; in assay [5] (72 hours), 103%.

As to `COCCCN1CCN(Cc2ccc(/C=C/c3n[nH]c4ccccc34)c(N3Cc4c(N)cccc4C3=O)c2)CC1` [Compound 321, (E)-4-amino-2-{5-[4-(3-methoxypropyl)piperazin-1-ylmethyl]-2-[2-(1H-indazol-3-yl)vinyl]phenyl}-2,3-dihydroisoindole-1-one], the inhibition at 10 µM in assay [2] (setting [6]) amounted to 101%. The inhibition at 1 µM in assay [4] (setting [7]) is 122%. In addition, in assay [5] (setting [8]), the “cytostatic rate (%) KMS-11 (1 μmol/L)” value was 102.3%.

For `C(=C\c1n[nH]c2ccccc12)/c1ccccc1N1CCOCC1` [Compound 137, (E)-3-[2-{2-(morpholin-4-yl)phenyl]vinyl}-1H-indazole], the inhibition at 10 µM in assay [2] (setting [6]) is 94.3%; in assay [4] (72 hours), 114%; in assay [5] (72 hours), 51.2%.

With `CON(C)C(=O)c1ccc(/C=C/c2n[nH]c3ccccc23)c(NC(=O)c2sccc2C)c1` [Compound 320, (E)-{2-[2-(1H-indazol-3-yl)vinyl]-5-(N-methoxy N-methylcarbamoyl)phenyl}-3-methyl-2-carboxamide], in assay [2] (setting [6]), the “inhibitory activity (%) at 10 μmol/L” value is on record as 102.1%. Moreover, in assay [4] (setting [7]), the “cytostatic rate (%) H929 (1 μmol/L)” value was 122.8%. Moreover, the “cytostatic rate (%) KMS-11 (1 μmol/L)” value in assay [5] (setting [8]) was 112.1%.

As for `O=C(Nc1cccnc1)c1ccccc1/C=C/c1n[nH]c2ccccc12` [Compound 142, (E)-2-[2-(1H-indazol-3-yl)vinyl]-N-(pyridin-3-yl)benzamide], the inhibition at 10 µM in assay [2] (setting [6]) came out at 92.8%; in assay [4] (72 hours), 104%; in assay [5] (72 hours) it was 84.9%.

In the case of `CN1CCN(C(=O)c2ccc(/C=C/c3n[nH]c4ccccc34)c(N3C(=O)c4cccc(N)c4C3=O)c2)CC1` [Compound 315, (E)-4-amino-2-{2-[2-(1H-indazol-3-yl)vinyl]-5-(4-methylpiperazin-1-ylcarbonyl)phenyl}isoindole-1,3-dione], in assay [2] (setting [6]), the inhibition at 10 µM is 106%. Moreover, the results for the inhibition at 1 µM in assay [4] (setting [7]) and in assay [5] (setting [8]) were 113% and 106%, respectively.

In the case of `Cc1ccsc1C(=O)Nc1cc(OCCN2CCOCC2)ccc1/C=C/c1n[nH]c2ccccc12` [Compound 251, (E)-N-{2-[2-(1H-indazol-3-yl)vinyl]-5-[2-(morpholin-4-yl)ethoxy]phenyl}-3-methylthiophene-2-carboxamide], the inhibition at 10 µM in assay [2] (setting [6]) is 102%. Moreover, the inhibition at 1 µM in assay [4] (1 μmol/L, 72 hours) worked out at 112%; in assay [5] (1 μmol/L, 72 hours), 114%.

Consider `CC(=O)N1CCN(C(=O)c2ccc(/C=C/c3n[nH]c4ccccc34)c(NC(=O)c3cc4ccccc4s3)c2)CC1` [Compound 90, (E)-N-{5-(4-acetylpiperazin-1-ylcarbonyl)-2-[2-(1H-indazol-3-yl)vinyl]phenyl}benzo[b]thiophene-2-carboxamide], for which the inhibition at 10 µM in assay [2] is 97%; in assay [4] (72 hours) it was 114%; in assay [5] (72 hours) it was 136%.

For the compound `CN(C)c1ccc(/C=C/c2n[nH]c3ccccc23)c(NC(=O)c2cccn2C)c1` [Compound 107, (E)-N-{5-dimethylamino-2-[2-(1H-indazol-3-yl)vinyl]phenyl}-1-methyl-1H-pyrrole-2-carboxamide], the results for the inhibition at 10 µM in assay [2], in assay [4] (72 hours) and in assay [5] (72 hours) were 92.8%, 119% and 119%, respectively.
